In experiment [1] the test system is Mus musculus. In words: Tested in vivo for anticonvulsant activity using MES, MMS and IS relative potency compared to GYKI 52466. Format: functional.
The species entered for experiment [2] is Rattus norvegicus. The experiment can be described thus: Tested in vitro for the relative potency against neuronal responses mediated by the non-NMDA type glutamate receptor compared to GYKI 52466. Format: functional.
Experiment [3] deals with Mus musculus. The experiment can be described thus: Tested in vivo for the anticonvulsant activity by MMS test. 95% confidence limits are in brackets. Format: functional.
In experiment [4] the test system is Mus musculus. The experiment can be described thus: Tested in vivo for the anticonvulsant activity by IS test. Format: functional.
The species entered for experiment [5] is Rattus norvegicus. The experiment can be described thus: Tested in vitro for the anticonvulsant activity (IC50 value was determined after 30 min perfusion application by MES test). Format: functional, organism-based. Conditions: 0.5 h.
Experiment [6] deals with Mus musculus. In words: Tested in vivo for the anticonvulsant activity by MES test. 95% confidence limits are in brackets. Format: functional.
In experiment [7] the test system is Mus musculus. In words: Tested in vivo for the oral anticonvulsant activity by MES test. Format: functional.
The species entered for experiment [8] is Mus musculus. In words: Tested in vitro for the oral anticonvulsant activity by MES test. Format: functional, organism-based.

Molecules are shown by their SMILES.

As to `CC1Cc2cc3c(cc2C(c2ccc(N)cc2)=NN1C(=O)CN(C)C)OCO3` (centres undefined), in the experiment on Mus musculus [1], the Relative potency was 0.
Same read-out and setting: the result for `CC1Cc2cc3c(cc2C(c2ccc(N)cc2)=NN1C(=O)c1ccccc1)OCO3` (centres undefined) reads 0; that for `CC1Cc2cc3c(cc2C(c2ccc(N)cc2)=NN1C(=O)C(F)(F)F)OCO3` (centres undefined), 0; that for `CC1Cc2cc3c(cc2C(c2ccc(N)cc2)=NN1C(=O)Cc1ccccc1)OCO3` (centres undefined), 0.
In the case of `CC1Cc2cc3c(cc2C(c2ccc(N)cc2)=NN1C(=O)CC#N)OCO3` (centres undefined), the Relative potency in the experiment with Mus musculus [1] turned out to be 0.21.
With `CNCC(=O)N1N=C(c2ccc(N)cc2)c2cc3c(cc2CC1C)OCO3` (centres undefined), the Relative potency amounted to 0 in the experiment with Mus musculus [1] and 0.02 in the experiment listed under Rattus norvegicus [2].
Consider `CC1Cc2cc3c(cc2C(c2ccc(N)cc2)=NN1C(=O)C(C)(C)C)OCO3` (centres undefined), for which the Relative potency in the experiment on Mus musculus [1] is given as 0.
Take `CC(N)C(=O)N1N=C(c2ccc(N)cc2)c2cc3c(cc2CC1C)OCO3` (centres undefined): the Relative potency came to 0.08 with Mus musculus [1] and 0 in the experiment filed under Rattus norvegicus [2].
On to `CCCCC(=O)N1N=C(c2ccc(N)cc2)c2cc3c(cc2CC1C)OCO3` (centres undefined), for which the values for the Relative potency with Mus musculus [1] and in the experiment listed under Rattus norvegicus [2] were 0 and 0.22, respectively.
Consider `CC1Cc2cc3c(cc2C(c2ccc(N)cc2)=NN1C(=O)Nc1ccccc1)OCO3` (centres undefined), for which, in the experiment with Mus musculus [1], the Relative potency turned out to be 0.13.
For the compound `CC1Cc2cc3c(cc2C(c2ccc(N)cc2)=NN1C(=O)C1CC1)OCO3` (centres undefined), the values for the Relative potency in the experiment on Mus musculus [1] and in the experiment listed under Rattus norvegicus [2] were 1.66 and 1.48, respectively.
Turning to `COCC(=O)N1N=C(c2ccc(N)cc2)c2cc3c(cc2CC1C)OCO3` (centres undefined), the Relative potency with Mus musculus [1] was determined as 1.02.
Consider `CC1Cc2cc3c(cc2C(c2ccc(N)cc2)=NN1C(=O)CN)OCO3` (centres undefined), for which the Relative potency in the experiment with Mus musculus [1] was determined as 0; in the experiment filed under Rattus norvegicus [2] it was 0.1.
The matching figures for `CCC(=O)N1N=C(c2ccc(N)cc2)c2cc3c(cc2CC1C)OCO3` (centres undefined): 2.55 and 1.55.
Turning to `CC1Cc2cc3c(cc2C(c2ccc(N)cc2)=NN1C=O)OCO3` (centres undefined), the Relative potency is 1.72 in the experiment with Mus musculus [1] and 0.44 in the experiment filed under Rattus norvegicus [2].
For `CCCCNC(=O)N1N=C(c2ccc(N)cc2)c2cc3c(cc2CC1C)OCO3` (centres undefined), in that order: 0.35 and 0.65.
For `CC1=NN=C(c2ccc(N)cc2)c2cc3c(cc2C1)OCO3` [GYKI-52466], the ED50 with Mus musculus [3] was 107 mg/kg; in the experiment on Mus musculus [4], 45.1 mg/kg; in the experiment on Mus musculus [6] it was 30.6 mg/kg. This compound had a 50% inhibitory concentration (IC50) in the experiment filed under Rattus norvegicus [5] of 29.5 µM.
With `CNC(=O)N1N=C(c2ccc(N)cc2)c2cc3c(cc2CC1C)OCO3` (centres undefined) [GYKI-53655], the ED50 with Mus musculus [7] was 8.4 mg/kg. Further, the Relative potency with Mus musculus [1] was determined as 4.39; in the experiment listed under Rattus norvegicus [2], 2.46. For the same compound, in the experiment listed under Mus musculus [8], it took 12 µM to reach half-maximal inhibition (IC50).
Turning to `CC(=O)N1N=C(c2ccc(N)cc2)c2cc3c(cc2C[C@H]1C)OCO3` [TALAMPANEL], the values for the Relative potency in the experiment with Mus musculus [1] and in the experiment listed under Rattus norvegicus [2] were 2.74 and 1.12, respectively.

Source of the values: ChEMBL document CHEMBL1127102, “Structure-activity relationships of 2,3-benzodiazepine compounds with glutamate antagonistic action” (Bioorg Med Chem Lett, 1993).
